Reference: the NIST ThermoML archive (doi:10.1016/j.jct.2009.07.021)
“And” between values parts separate entries of the source, which are not always exact repeats. Equal values may be shown once.

What was measured:
[1] = molar enthalpy of transition or fusion; settings: 298.15 K; Crystal; Clausius-Clapeyron Eq with Heat Capacity
[2] = Crystal, Calculated from knudsen effusion weight loss

CC(=O)c1cc(-c2ccccc2)sc1C [3-acetyl-2-methyl-5-phenylthiophene]
Settings	molar enthalpy of transition or fusion [kcal/mol]
[1]	26.03

[2]
Settings	vapor or sublimation pressure
321.12 K	6.03e-05 kPa and 6.33e-05 kPa and 6.05e-05 kPa
323.13 K	7.9e-05 kPa and 7.98e-05 kPa and 7.73e-05 kPa
325.21 K	0.000102 kPa and 9.93e-05 kPa and 0.0001 kPa
327.12 K	0.000128 kPa and 0.000126 kPa and 0.00013 kPa
329.16 K	0.000162 kPa and 0.00016 kPa and 0.000159 kPa
331.2 K	0.00021 kPa and 0.000202 kPa and 0.000204 kPa
333.12 K	0.000259 kPa and 0.000261 kPa and 0.000258 kPa
335.15 K	0.000328 kPa and 0.000322 kPa and 0.000323 kPa
336.13 K	0.000366 kPa and 0.000371 kPa and 0.000368 kPa
337.2 K	0.000425 kPa and 0.000414 kPa and 0.000409 kPa
338.15 K	0.000461 kPa and 0.000462 kPa and 0.00046 kPa
339.2 K	0.000535 kPa and 0.000522 kPa and 0.000515 kPa
